Experiments:
male rats [1] = assay: Uricosuric Activity (fractional excretion of uric acid); assay type: in vivo; conditions: orally, 30 min urine from 60 min after dosing
Experimental: Male rats weighing 150 to 250 g were fasted overnight and, the next morning, orally administered with either (1) 25 ml/Kg of physiological saline (control group) or (2) a test compound which was suspended in 0.5 wt % carboxymethylcellulose. After 60 minutes from the administration of the test compound, urine over a period of 30 minutes was collected. Thereafter, blood was taken from the arotid artery under anesthesia, and uric acid concentrations in the urine and the serum were determined by the enzyme method. On the other hand, […] concentrations in the urine and the serum were determined by a Jaffe's method to obtain the fractional excretion of uric acid. Percent of uric acid excretion was calculated by dividing the value of fractional excretion in the test group by that in the control group.

Acute toxicity (LD50) = conditions: rat, in vivo, po; P.O. in Rats
From the text: The compound of the present invention has a low toxicity, and the acute toxicity (LD50) of typical compounds of formula (I) is shown in the following Table 4.

male rats [2] = assay: Diuretic Activity and Natriuretic Activity; assay type: in vivo; conditions: 300 mg/Kg, orally, urine collected for 5 hours, control value subtracted
Experimental: Male rats weighing 150 to 250 g were fasted overnight and, the next morning, orally administered with either (1) 25 ml/Kg of physiological saline (control group) or (2) a test compound which was suspended in 0.5 wt % carboxymethylcellulose. Urine after dosing was collected for 5 hours, and urinary volume and sodium concentration were measured. Each parameter was calculated by subtracting the value of the control group from that of the test group.

hypertensive rats = assay: Antihypertensive Activity (DOCA/saline hypertensive rats, tail cuff); assay type: in vivo; conditions: DOCA hypertensive rats, orally once a day, systolic pressure vs control
Experimental: Four-week-old male rats weighing 120 to 150 g were subcutaneously injected with DOCA (desoxycorticosterone acetate) and fed on a 1% saline solution to cause hypertension in accordance with the method of Seyle, et al. as described in American Heart Journal, Vol. 37, 1009 (1949). The test compound was orally administered to the hypertensive rats once a day for 4 weeks. The blood pressure of the animal was measured by a tail cuff method every one week from the start of the administration.
In Table 3, antihypertensive activity (ΔmmHg) was obtained by subtracting the systolic pressure of the test group from that of the control group.

[3] = in words, literature; cited from earlier work

SMILES | % of Uric Acid Excretion (male rats [1]; 100 mg/Kg) | LD50 (Acute toxicity (LD50)) | Increase in Urinary Na^+ (male rats [2]) | Increase in Urinary Output (male rats [2]) | Antihypertensive Activity After 1 Week (hypertensive rats; 100 mg/Kg) | Antihypertensive Activity After 2 Weeks (hypertensive rats; 100 mg/Kg) | Antihypertensive Activity After 3 Weeks (hypertensive rats; 100 mg/Kg) | % of Uric Acid Excretion (male rats [1]; 200 mg/Kg) | Antihypertensive Activity After 1 Week (hypertensive rats; 300 mg/Kg) | Antihypertensive Activity After 2 Weeks (hypertensive rats; 300 mg/Kg) | Antihypertensive Activity After 3 Weeks (hypertensive rats; 300 mg/Kg) | diuretic, saluretic and uricosuric activities [3]
O=C(O)COc1cc(Cl)c2c(=O)c(-c3ccccc3)coc2c1 [(a), [(5-Chloro-4-oxo-3-phenyl-4H-1-benzopyran-7-yl)oxy]acetic acid] | 136% | 1020 mg/kg | 1220 ΔμEq | 51.8 Δml/Kg | 13.7 ΔmmHg | 37.0 ΔmmHg | 49.0 ΔmmHg |  |  |  |  | 
Cc1cc(OCC(=O)O)cc2occ(-c3ccccc3)c(=O)c12 [(b), [(5-Methyl-4-oxo-3-phenyl-4H-1-benzopyran-7-yl)oxy]acetic acid] | 66% | 936 mg/kg | 987 ΔμEq | 23.6 Δml/Kg | 10.0 ΔmmHg | 17.9 ΔmmHg | 15.0 ΔmmHg |  |  |  |  | 
O=C(O)COc1cc(Cl)c2c(=O)c(-c3ccccc3Cl)coc2c1 [(c), {[5-Chloro-3-(2-chlorophenyl)-4-oxo-4H-1-benzopyran-7-yl]oxy}acetic acid] | 36% | 1410 mg/kg | 1015 ΔμEq | 41.0 Δml/Kg | 13.6 ΔmmHg | 20.7 ΔmmHg | 29.3 ΔmmHg |  |  |  |  | 
Cc1ccccc1-c1coc2cc(OCC(=O)O)cc(Cl)c2c1=O [(d), {[5-Chloro-3-(2-methylphenyl)-4-oxo-4H-1-benzopyran-7-yl]oxy}acetic acid] | 56% |  | 1196 ΔμEq | 49.6 Δml/Kg | 12.1 ΔmmHg | 14.3 ΔmmHg | 15.7 ΔmmHg |  |  |  |  | 
O=C(O)COc1cc(Cl)c2c(=O)c(Cc3ccccc3)coc2c1 [(e), [(3-Benzyl-5-chloro-4-oxo-4H-1-benzopyran-7-yl)oxy]acetic acid] | 39% |  | 967 ΔμEq | 37.9 Δml/Kg | 6.2 ΔmmHg | 28.7 ΔmmHg | 39.4 ΔmmHg |  |  |  |  | 
O=C(O)COc1ccc(C(=O)c2cccs2)c(Cl)c1Cl [Tienilic acid, [2,3-dichloro-4-(2-thenoyl)phenoxy]acetic acid, reference compound] |  |  | 353.4 ΔμEq | 10.2 Δml/Kg |  |  |  | 38% | 23.6 ΔmmHg | 35.0 ΔmmHg | 44.3 ΔmmHg | having diuretic and uricosuric activities
CC1(c2ccccc2)Cc2cc(OCC(=O)O)c(Cl)c(Cl)c2C1=O (centres unmarked) [indacrinone] |  |  |  |  |  |  |  |  |  |  |  | having diuretic and uricosuric activities

Reference: patent US4841076A, “Benzopyran derivatives” (Daiichi Seiyaku Co., Ltd., priority 1986, dated 1989)
